Results reported in PMC9712658, “Structural analysis of the 2-oxoglutarate binding site of the circadian rhythm linked oxygenase JMJD5” (Scientific Reports, 2022).

Target: T1, full-length JMJD5 (aa 1–416, JMJD5^FL) (Homo sapiens, UniProt Q8N371)
T1 construct: 10 µM full-length JMJD5 (aa 1–416); His6 (N); made in house; host or cells: Escherichia coli Rosetta2(DE3)-pLysS
Experiment: JMJD5 inhibition assay by MALDI-TOF MS (hydroxylation of RpS6_129-144 peptide)
Assay type: biochemical
Details: for IC50: 10 µM JMJD5^FL, 100 µM Fe(II), 400 µM ascorbate, 50 µM 2OG, 100 µM RpS6_129-144, inhibitor 0–10 mM, mean (n = 3) ± SD
From the text: To explore inhibition involving orthosteric 2OG ligand binding in the JMJD5 2OG pocket, we initially screened a focused set of compounds comprising relatively close 2OG mimetics, tricarboxylic acid (TCA) cycle intermediates, hypoxia inducible factor (HIF) prolyl hydroxylase (PHD) inhibitors, and JmjC histone demethylase (KDM) inhibitors (Supplementary Fig. S1).
[…] Hydroxylation of RpS6 peptide was monitored by MALDI-TOF MS and intensity of hydroxylated peak was quantified to determine the extent of inhibition caused by inhibitor.

T1 sequence (Q8N371 whole entry, the tested form may be a part): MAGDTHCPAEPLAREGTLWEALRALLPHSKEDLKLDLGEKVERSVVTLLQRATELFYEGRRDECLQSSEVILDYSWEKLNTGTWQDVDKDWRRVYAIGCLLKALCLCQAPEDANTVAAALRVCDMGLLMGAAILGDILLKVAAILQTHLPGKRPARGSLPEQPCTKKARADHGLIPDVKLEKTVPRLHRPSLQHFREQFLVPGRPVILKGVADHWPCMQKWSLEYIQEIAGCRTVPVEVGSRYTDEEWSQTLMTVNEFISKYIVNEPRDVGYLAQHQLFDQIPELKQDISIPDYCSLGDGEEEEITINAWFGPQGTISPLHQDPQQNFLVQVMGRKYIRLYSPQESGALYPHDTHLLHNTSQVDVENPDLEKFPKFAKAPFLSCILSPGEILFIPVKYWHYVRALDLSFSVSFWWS

| SMILES | IC50 [µM] | JMJD5 inhibition (in words) (screen at 0.1, 1 and 10 mM and/or IC50 determination) |
| --- | --- | --- |
| O=C(O)c1ccnc(-c2cc(C(=O)O)ccn2)c1 [2.4-BPDCA, bipyridinyl-2,4-dicarboxylate] | 66 ± 1.5 | – |
| O=C(O)CNC(=O)c1ncc(-c2cccc(F)c2)cc1O [AKB-6899] | 288 ± 1.5 | – |
| O=C(O)CC(O)(CC(=O)O)C(=O)O [Citrate] | 820 ± 1.8 | – |
| O=C(O)CC[C@@H](O)C(=O)O [D-2HG, D-2-hydroxyglutarate] | 1268 ± 1.5 | – |
| Cc1nc(C(=O)NCC(=O)O)c(O)c2ccc(Oc3ccccc3)cc12 [FG4592] | 239 ± 1.9 | – |
| O=C(O)CCNc1cc(N2CCc3ccccc3CC2)nc(-c2ccccn2)n1 [GSK-J1] | 67 ± 1.5 | – |
| O=C(O)c1ccc(O)c2ncccc12 [IOX1, 5-carboxy-8-hydroxyquinoline] | 96 ± 1.7 | – |
| CCN(CCN(C)C)C(=O)CNCc1cc(C(=O)O)ccn1 [KDM5-C49] | 621 ± 1.4 | – |
| O=C(O)CC[C@H](O)C(=O)O [L-2HG, L-2-hydroxyglutarate] | 340 ± 1.3 | – |
| CN(C)CCCNC(=O)c1ccc(-c2cc(O)c3ncccc3c2)cc1 [ML-324] | 15 ± 1.4 | – |
| O=C(O)CC(O)C(=O)O (stereo not shown) [Malate] | 1604 ± 1.4 | – |
| O=C(O)CNC(=O)C(=O)O [NOG, N-oxalylglycine] | 6 ± 1.4 | – |
| O=C(O)CC(=O)C(=O)O [Oxaloacetate] | 85 ± 1.4 | – |
| CC(=O)C(=O)O [Pyruvate] | 500 ± 1.6 | – |
| O=C(O)CCC(=O)O [Succinate] | 840 ± 1.4 | – |
| CN(C)NC(=O)CCC(=O)O [daminozide] | – | Neither daminozide (a plant growth regulator that inhibits the JmjC KDM 2/7 oxygenases[56]), nor its structural derivative 7 appear to inhibit JMJD5 |
